Source: patent US12540112B2, “Crystal form I of curcumin derivative, preparation method therefor and application thereof” (WENZHOU MEDICAL UNIVERSITY, priority 2019, dated 2026)
Where “and” joins values, the source holds several entries; their conditions need not be identical. Equal entries are not always repeated. Entries after “also recorded” stand apart in the source; their conditions may differ.

How the values were obtained:
Type in all cases: physicochemical
[1] = Fluidity test: angle of repose measurement
Method: (1) Angle of Repose Measurement
An iron stand configured to measure the angle of repose is placed in a horizontal position, a funnel is fixed on the iron stand, and a plastic receiving container is placed directly under the funnel. The crystal form I is added to the funnel to make the material flow down slowly from the funnel to form a cone shape. The height of the bottom of the funnel and the top of the flowed-down material is maintained at a height of about 2-4 cm. The measurement is repeated 5 times to calculate the average value.

[2] = Fluidity test: bulk density and tap density determination
Method: (2) Bulk Density and Tap Density Determination
The crystal form I is added to a measuring cylinder, and the weight and volume of the material added are calculated. A densitometer is used to tap and record the volume of the material after tapping.

[3] = Moisture absorption determination according to the Pharmacopoeia
Method: In this embodiment, the moisture absorption of crystal form I is investigated according to the Pharmacopoeia, and the details are as follows: • (1) 2 dry glass weighing bottles with stoppers (outer diameter of 50 mm, height of 30 mm) are taken and placed in a desiccator where a saturated solution of ammonium chloride is placed in a lower part. The weighing bottles are placed with open lips, the lid of the desiccator is closed, and the desiccator is placed in a constant temperature room at 25° C. and left overnight. • (2) after left overnight, the weighing bottles are taken out and accurately weighted, results of which are m1 1 and m1 2 respectively. • (3) an appropriate amount of the API sample is taken and laid flat in a weighed weighing bottle (the thickness of the sample is about 1 mm), and accurately weighted, results of which are m2 1 and m2 2 respectively. • (4) the weighing bottles are placed with open lips and placed with the bottle caps in the desiccator with the saturated solution of ammonium chloride in the lower part, the lid of the desiccator is closed, and the desiccator is placed in a thermostat at 25° C. for 24 hours. • (5) after leaving for 24 hours, the weighing bottles are capped and accurately weighted, results of which are m3 1 and m3 2 respectively. • (6) the calculation formula for moisture absorption weight gain is as follows: Weight gain percentage=100%×(m3−m2)/(m2−m1)

[4] = Two-week solid-state stability determination (XRPD and HPLC); settings: 2 weeks; for Purity after storage: HPLC, initial purity 99.72%; for Stability of crystalline shape: XRPD
Excerpt: […] Samples are taken after 2 weeks to test the stability of the samples by XRPD and HPLC.

angle of repose, Average value ([1]; average of 5 repeated measurements): 41.80 °
fluidity ([1]; judgement in words): good fluidity; also recorded: acceptable
Carr index ([2]; (tap density − bulk density)/tap density × 100): 21.60
ρ (bulk density) ([2]; M 29.85 g, V 44.0 mL): 0.678 g/mL
ρ-tapped (tap density) ([2]; M 29.85 g, V-tapped 34.5 mL): 0.865 g/mL
fluidity (from Carr index) ([2]; judgement in words): good fluidity
Weight gain percentage, Average value ([3]; 25° C., saturated ammonium chloride solution desiccator, 24 hours, average of 2): 0.16%
Weight gain percentage (moisture absorption) ([3]; 25° C., saturated ammonium chloride solution desiccator, 24 hours, listed as C66-HC-006-13-06): 0.17% and 0.15%
moisture absorption ([3]; judgement in words): no or almost no moisture absorption
Purity after storage ([4]; 25° C./60% RH/60% RH): 99.70%
Stability of crystalline shape ([4]; 25° C./60% RH/60% RH): YES
Purity after storage ([4]; 25° C./92.5% RH): 99.72%
Stability of crystalline shape ([4]; 25° C./92.5% RH): YES
Purity after storage ([4]; 40° C./75% RH): 99.70%
Stability of crystalline shape ([4]; 40° C./75% RH): YES
Purity after storage ([4]; 60° C./75% RH): 99.68%
Stability of crystalline shape ([4]; 60° C./75% RH): YES
change of purity on storage ([4]; all storage conditions): does not change significantly
stability of crystal form ([4]; all storage conditions): remains stable
SMILES: O=C1/C(=C/c2ccccc2C(F)(F)F)CCC/C1=C\c1ccccc1C(F)(F)F [crystal form I]
angle of repose ([1]; single measurements 1 to 5, funnel method): 41.30° and 40.86° and 42.93° and 41.87° and 42.02°
